“Also recorded” adds a separate entry of the source. Like-named read-outs stand apart in the source and are kept apart here.
How the values were obtained:
[1] = system: CRAC channels; test: Ca2+ dependent CRAC inactivation, two sequential Ca2+ additions after tapsigargin store depletion (Fura-2); type: cell-based, mouse; settings: in the presence of CCCP
Description: FIG. 1: Increased mitochondrial Ca^2+ buffering in crt^−/− T cells. • a) After ER Ca^2+ depletion with tapsigargin, CCE was induced in crt^−/− and crt^+/+ T cell clones by the addition of 0.5 mM Ca^2+ to the extracellular medium (see Example 1). After complete washout of extracellular Ca^2+, the mitochondrial Ca^2+ buffering was visualized by the addition of ionomycin. • b) Histograms representing mitochondrial Ca^2+ content after CCE with 0.5, 1 and 2 mM extracellular Ca^2+ in crt^−/− and crt^+/+ T cell clones. • c) Increased mitochondrial Ca^2+ buffering in crt^−/− T cells retards CRAG inactivation. Cells were treated with tapsigargin followed by two separate additions of Ca^2+ to the extracellular medium (see Example 1) (see also FIG. 2C). The rate of rise of cytosolic Ca^2+ concentration was calculated at the first and second addition of Ca^2+. […] (*, P<0.05, **, P<0.001, ***, P<0.0001)
FIG. 2: Reduced Ca^2+ in the ER, unaltered mitochondrial membrane potential and decreased CRAC inactivation in crt^−/− T cells. • a) The ER Ca^2+ content of Fura-2 loaded D011.10 TCR transgenic T cell clones was assessed by addition of the SERCA pump inhibitor tapsigargin to a medium devoid of Ca^2+ (see Example 1). The passive leak of Ca^2+ from the ER into the cytosol is seen as a slow transient rise in the cytosolic Ca^2+ concentration. […]

[2] = system: DO11.10 T cell clones; test: Ca2+ imaging with P2 receptor agonists; type: cell-based, mouse
[3] = system: MAPK; test: Protracted MAPK (p38, Erk) activation after 16 h CD3 stimulation; type: cell-based, mouse; settings: crt^−/− T cells, CD3 antibodies 16 h
[4] = system: NFAT1; test: NFAT1 nuclear localization after T cell stimulation; type: cell-based, mouse
Description: (§1) In order to distinguish between TCR dependent and independent ERK activation, TCR signaling was blocked at 30 min after CD3 activation with the tyrosine kinase inhibitor PP2, which inhibits TCR dependent Ick/fyn src-like kinase activity.
(§2) NFAT nuclear translocation without concomitant MAPK activation, which can be obtained by ionomycin treatment, implements a transcriptional program leading to T cell anergy (Macian et al., Cell 109:719-731 (2002)). […] Then, we hypothesized that activation of T cells in the presence of oATP could induce T cell anergy.

[5] = system: naïve CD4^+ T cells; test: ATP synthesis after T cell activation with CD3 antibodies; type: cell-based, mouse
Source text: CCE induced by antigenic activation of crt^−/− CD4^+ T cells might therefore be linked to a higher ATP production compared to crt^+/+ cells.

[6] = system: crt^−/− CD4^+ T cells; test: Propidium iodide (PI) staining of treated cells
[7] = system: ERK; test: ERK phosphorylation time course after CD3 stimulation, TCR signaling blocked with PP2 at 30 min; type: cell-based, mouse; settings: for ERK phosphorylation / activity: added in combination with PP2
Description: (§3) After 30 min of stimulation, cells were either left untreated (first panel on the left), or treated with the src-like kinase inhibitor PP2 either alone (second panel) or in combination with oATP (third panel) or ARL (fourth panel).
as §1

[8] = system: mouse T cells; test: IL-2 secretion by ELISA; type: cell-based
[9] = system: human T cells; test: Proliferation of CFSE-loaded T cells, plate-bound anti-CD3/28 (FACS); type: cell-based; settings: 100 μM oATP or 200 μM of PX10 peptide, four days
Description: Our results point to a role for pannexin hemichannels in ATP release in T cells. […] CFSE-loaded human T cells were stimulated with plate-bound anti-CD3/28 antibodies in the presence of 100 μM oATP or 200 μM of PX10 peptide. Four days later, the proliferation was measured by FACS analysis.

[10] = system: T cell clones; test: Cellular ATP content by luciferase assay after TCR triggering; type: cell-based; settings: 200 μM PX10 preincubation 30 minutes
Description: FIG. 10: The pannexin blocking peptide PX10 increases the intracellular ATP concentration upon TCR triggering.
Finally, we tested whether the inhibition of pannexin-mediated ATP release might lead to a fast accumulation of ATP following T cell activation. T cell clones were preincubated with 200 μM PX10 for 30 minutes. They were then stimulated with biotinylated anti-CD3 antibodies followed by crosslinking with strepavidine. Samples were collected at indicated time points, detergent-solubilized and frozen until their use in a standard luciferase assay to determine cellular ATP content.

[11] = system: crt^−/− CD4^+ T cells
[12] = system: naïve CD4^+ T cells; test: IL-2 ELISA in culture supernatants, plate-bound CD3 and CD28 stimulation; type: cell-based, mouse
Source text: An inhibitory effect of oATP on peripheral blood T cell proliferation has been described (Baricordi et al., Blood 87:682-690 (1996)). […] We therefore hypothesize that ATP released from activated T cell is part of an autocrine loop, which plays an essential role in productive T cell activation.

[13] = system: naive CD4 T cells; test: T cell proliferation by CFSE dilution, plate-bound CD3 and CD28 mAbs; type: cell-based, mouse; settings: IL-2 at 250 U/ml; PMA
[14] = system: Egr2 and Egr3; test: Real-time PCR of anergy related genes Egr2 and Egr3; type: cell-based, mouse; settings: PMA together with oATP
Source text: as §2, with “anergy. […] The effect of oATP was not due to altered turn-over of the TCR/CD3 complex at the cell surface, as determined by FACS analysis (data not shown).” for “anergy.”

[15] = system: ZAP-70; test: ZAP-70 phosphorylation after CD3 stimulation, PP2 added at 30 min; type: cell-based, mouse; settings: PP2 at 30 min after CD3 activation
Description: as §3, §1

N#CC(C#N)=NNc1cccc(Cl)c1 [CCCP]
Ca^2+ dependent inactivation of CRAC channels, crt^−/− versus crt^+/+ cells [1]: comparable

Nc1ncnc2c1ncn2[C@@H]1O[C@H](COP(=O)(O)OP(=O)(O)OP(=O)(O)O)[C@@H](O)[C@H]1O [ATP, adenosine triphosphate]
cells with calcium rise ([2]; 1 mM ATP, Ca^2+ present in the extracellular medium): 52% | cytosolic calcium rise ([2]; absence of extracellular Ca^2+): moderate cytosolic calcium rise

CC[C@H]1/C=C/C=C/C[C@@H](C)[C@H](O)[C@@](C)(O)C(=O)[C@@H](C)[C@H](O)[C@@H](C)C(=O)[C@@H](C)[C@H](O)[C@@H](C)/C=C/C(=O)O[C@@H]2[C@H](C)[C@H](CC1)O[C@]1(CC[C@H](C)[C@H](C[C@@H](C)O)O1)[C@H]2C [oligomycin]
prolonged activation of MAPK (p38 MAPK and Erk) [3]: almost completely abolished | nuclear localization of NFAT1 [4]: did not significantly affect | activation induced ATP synthesis [5]: abolished | cellular damage due to toxicity, PI staining versus untreated [6]: did not reveal any difference

CSc1nc(N)c2ncn([C@@H]3O[C@H](COP(=O)(O)OP(=O)(O)OP(=O)(O)O)[C@@H](O)[C@H]3O)c2n1 [MeSATP]
cells activated / responsive to P2 subtype preferring agonist [2]: 35%

CSc1nc(N)c2ncn([C@@H]3O[C@H](COP(=O)(O)OP(=O)(O)O)[C@@H](O)[C@H]3O)c2n1 [2MeSADP]
cells activated / responsive to P2 subtype preferring agonist [2]: 31%

CCN(CC)c1ncnc2c1ncn2[C@@H]1O[C@H](COP(=O)(O)OP(=O)(O)C(Br)(Br)P(=O)(O)O)[C@@H](O)[C@H]1O [ARL67156]
ERK phosphorylation / activity [7]: increase | ERK phosphorylation / activity ([7]; listed as ARL): increased

WRQAAFVDSY [PX10]
IL-2 secretion [8]: strongly inhibited | T cell proliferation [9]: comparably to oATP | T cell proliferation ([9]; listed as PX10 peptide): strongly inhibited | intracellular ATP after TCR triggering [10]: rapid intracellular rise of ATP; also recorded: increases

BzATP
cells activated / responsive to P2 subtype preferring agonist [2]: 33%

Cc1nc(N=Nc2ccc(S(=O)(=O)O)cc2S(=O)(=O)O)c(COP(=O)(O)O)c(C=O)c1O [PPADS]
prolonged activation of MAPK (p38 MAPK and Erk) [3]: almost completely abolished | cellular damage due to toxicity, PI staining versus untreated [11]: did not reveal any difference | nuclear localization of NFAT1 [4]: did not significantly affect | IL-2 in the cell culture supernatant ([12]; versus untreated cells, 48 h): Analogous inhibition | ERK phosphorylation / activity [7]: significant inhibition

CCCCCCCCCCCCCC(=O)O[C@@H]1[C@@H](C)[C@@]2(O)[C@@H](C=C(CO)C[C@]3(O)C(=O)C(C)=C[C@@H]23)[C@@H]2C(C)(C)[C@]12OC(C)=O [PMA, phorbol 12-myristate 13-acetate, reference compound]
oATP inhibition of T cell proliferation on addition of second agent [13]: completely restored | Egr2 and Egr3 transcription [14]: robustly reduced | oATP and PPADS-dependent inhibition of IL-2 expression on addition of PMA ([12]; contemporaneous addition): rescued

Nc1ncnc2c1ncn2[C@@H]1O[C@H](COP(=O)(O)CP(=O)(O)OP(=O)(O)O)[C@@H](O)[C@H]1O [αβMeATP]
cells activated / responsive to P2 subtype preferring agonist [2]: 18%

CC(C)(C)n1nc(-c2ccc(Cl)cc2)c2c(N)ncnc21 [PP2]
TCR-dependent phosphorylation of ZAP-70 [15]: affected; also recorded: efficiently inhibited | ERK phosphorylation at later time points ([7]; PP2 alone): did not significantly affect; also recorded: less affected

— US20110076258A1, “METHODS OF MODULATING T CELL- DEPENDENT IMMUNE RESPONSES” (Converge Biotech Inc., priority 2008, published 2011)
